Measured values: ChEMBL document CHEMBL1142134, “Characterization of squalene epoxidase of Saccharomyces cerevisiae by applying terbinafine-sensitive variants” (2007)
The source made the active and inactive calls. The rule behind the calls is not given here.

How the values were obtained:
Saccharomyces cerevisiae [1] = experiment: Increased sensitivity to growth inhibition in Saccharomyces cerevisiae KLN1 carrying erg1 pR269G allele after 24 hrs relative to wild type at 30 degC; type: functional
Saccharomyces cerevisiae [2] = experiment: Increased sensitivity to growth inhibition in Saccharomyces cerevisiae KLN1 carrying erg1 pL37P allele after 24 hrs relative to wild type at 30 degC; type: functional
Saccharomyces cerevisiae [3] = experiment: Growth inhibition in Saccharomyces cerevisiae KLN1 carrying erg1 pL37P allele at 0.2 ug/ml after 24 hrs at 30 degC; type: functional, organism-based
Saccharomyces cerevisiae [4] = experiment: Growth inhibition in Saccharomyces cerevisiae KLN1 carrying erg1 pR269G allele at 1 ug/ml after 24 hrs st 30 degC; type: functional, organism-based
Saccharomyces cerevisiae [5] = experiment: Growth inhibition in Saccharomyces cerevisiae KLN1 carrying erg1 pG30S allele at 0.5 ug/ml after 24 hrs at 30 degC; type: functional, organism-based

In the case of `CC(=O)N1CCN(c2ccc(OCC3COC(Cn4ccnc4)(c4ccc(Cl)cc4Cl)O3)cc2)CC1` (centres undefined) [KETOCONAZOLE], the Fold change (Saccharomyces cerevisiae [1]) is reported as 2 and the Fold change (Saccharomyces cerevisiae [2]) is reported as 5.

Compound `CN(C/C=C/c1ccccc1)Cc1cccc2ccccc12` [NAFTIFINE] has a Fold change (Saccharomyces cerevisiae [1]) of over 10 and a Fold change (Saccharomyces cerevisiae [2]) of over 25.

In the case of `CN(C/C=C/C#CC(C)(C)C)Cc1cccc2ccccc12` [TERBINAFINE], the Activity (Saccharomyces cerevisiae [3]) is reported as “Active”, the Activity (Saccharomyces cerevisiae [4]) is reported as “Active” and the Fold change (Saccharomyces cerevisiae [1]) is reported as over 5. The Activity (Saccharomyces cerevisiae [5]) was “Active” and the Fold change (Saccharomyces cerevisiae [2]) was over 10.
